Test results: US6900193B1, “Structural modification of 19-norprogesterone I: 17-α-substituted-11-β-substituted-4-aryl and 21-substituted 19-norpregnadienedione as new antiprogestational agents” (The United States of America as represented by the …, priority 1996, dated 2005)
Entries after “also recorded” stand apart in the source; their conditions may differ.

Columns and labels:
[1] = target: T1, glucocorticoid receptor (estrogen-primed rabbit thymus) (Oryctolagus cuniculus, UniProt P59667); assay: Relative binding affinity, glucocorticoid receptor; details: for RELATIVE BINDING AFFINITY Glucocorticoid / BINDING AFFINITY Glucocortic: estrogen-primed rabbit thymus, dexamethasone = 100%; for binding affinity for the glucocorticoid receptor, in words: rabbit thymus, versus CDB-2914 (69B) where stated; for BINDING AFFINITY Glucocortic: Table 2
T1 construct: preparation of cytosols for the progesterone and glucocorticoid receptor assays; from tissue; host or cells: thymus of estradiol-primed immature female New Zealand White rabbits (cytosol)
T1 sequence (P59667 1-772): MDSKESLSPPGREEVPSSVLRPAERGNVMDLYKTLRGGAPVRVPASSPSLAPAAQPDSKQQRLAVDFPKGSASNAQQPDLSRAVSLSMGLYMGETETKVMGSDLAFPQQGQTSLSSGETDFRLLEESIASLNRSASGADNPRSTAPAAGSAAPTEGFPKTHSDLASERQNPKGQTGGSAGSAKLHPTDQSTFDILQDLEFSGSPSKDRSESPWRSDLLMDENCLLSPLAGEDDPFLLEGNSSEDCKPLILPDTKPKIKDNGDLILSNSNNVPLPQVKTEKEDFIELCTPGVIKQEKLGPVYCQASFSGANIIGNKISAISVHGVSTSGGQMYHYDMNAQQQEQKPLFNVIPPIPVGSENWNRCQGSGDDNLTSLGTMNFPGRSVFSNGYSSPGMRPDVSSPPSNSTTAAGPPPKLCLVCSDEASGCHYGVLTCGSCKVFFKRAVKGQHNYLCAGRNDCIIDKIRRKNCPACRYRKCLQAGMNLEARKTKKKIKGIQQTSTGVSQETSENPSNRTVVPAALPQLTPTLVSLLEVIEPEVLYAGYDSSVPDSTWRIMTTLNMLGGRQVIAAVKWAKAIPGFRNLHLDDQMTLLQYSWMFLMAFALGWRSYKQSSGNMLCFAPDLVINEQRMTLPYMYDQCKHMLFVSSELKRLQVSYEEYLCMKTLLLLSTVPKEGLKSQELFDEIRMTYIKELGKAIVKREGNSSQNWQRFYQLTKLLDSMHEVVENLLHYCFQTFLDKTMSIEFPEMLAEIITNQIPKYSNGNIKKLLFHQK

[2] = system: progesterone-induced endometrial proliferation; assay: AntiMcGinty test; assay type: in vivo, rabbit; details: for antiprogestational activity compared with the lead compound / standard, in words: antiMcGinty (and antiClauberg), versus CDB-2914 (69B); for ANTIPROGESTATIONAL ACTIVITY ANTI-MCGINITY / ANTIPROGESTATIONAL Anti-McGinty: intraluminal; for ANTIPROGESTATIONAL ACTIVITY ANTI-MCGINITY: estrogen-primed immature rabbits, CDB-2477 = 1.0 (assigned); for ANTIPROGESTATIONAL Anti-McGinty: relative potency, CDB-2914 = 100 (assigned), rabbit
Protocol: AntiMcGinty Test (McGinty, et al., Endocrinology, 24:829-832 (1939))
Immature female rabbits of the New Zealand White breed (approx. 1 kg body weight) were maintained under standard laboratory conditions and received a subcutaneous injection of 5 μg estradiol in 10% ethanol/sesame oil daily for 6 consecutive days. Twenty-four hours after the last injection of estradiol (day 7) animals underwent sterile abdominal surgery to ligate a 3-4 cm segment of both uterine horns. The experimental compound in appropriate solvent (usually 10% ethanol/sesame oil) was injected intraluminally into the ligated segment of one uterine horn and the vehicle alone into the ligated segment of the contralateral horn. Injection volume was limited to 0.1 ml, and care was taken to prevent leakage. A stimulating dose of progesterone (0.8 mg/day) was administered subcutaneously to each rabbit daily for the next three days (days 7, 8 and 9) for the purpose of inducing endometrial proliferation. All animals were sacrificed on day 10 when a segment central to the ligatures was removed and fixed in 10% neutral buffered formalin and submitted for histological processing. Five micron sections stained with hematoxylin and eosin (H&E) were evaluated microscopically for the degree of endometrial glandular proliferation according to the method of McPhail (McPhail, J. Physiol., 83:145 (1934). The percent inhibition of endometrial proliferation for each rabbit was calculated and the mean of the group of five animals recorded.

SMILES	RELATIVE BINDING AFFINITY Glucocorticoid [1]	binding affinity for the glucocorticoid receptor, in words [1]	antiprogestational activity compared with the lead compound / standard, in words [2]	ANTIPROGESTATIONAL ACTIVITY ANTI-MCGINITY [2]	BINDING AFFINITY Glucocortic [1]	ANTIPROGESTATIONAL Anti-McGinty [2]
CC(=O)O[C@]1(C(=O)CO)CCC2C3CCC4=CC(=O)CCC4=C3C(c3ccc(N(C)C)cc3)C[C@@]21C (stereo partly drawn) [Compound 41, 17α-acetoxy-21-hydroxy-11β-[4-(N,N-dimethylamino)phenyl]-19-norpregna-4,9-diene-3,20-dione]	71%					
CC#C[C@]1(O)CC[C@H]2[C@@H]3CCC4=CC(=O)CCC4=C3[C@@H](c3ccc(N(C)C)cc3)C[C@@]21C [mifepristone]		greater binding affinity	more potent than the standard	1.0		
CC(=O)O[C@]1(C(C)=O)CC[C@H]2[C@@H]3CCC4=CC(=O)CCC4=C3[C@@H](c3ccc(N(C)C)cc3)C[C@@]21C [Compound 69B, 17α-acetoxy-11β-(4-N,N-dimethylaminophenyl)-19-norpregna-4,9-diene-3,20-dione, reference compound]	114%			0.56	114%	100
CC(=O)O[C@]1(C(C)=O)CC[C@H]2[C@@H]3CCC4=CC(=O)CCC4=C3[C@@H](c3ccc(N4CCCCC4)cc3)C[C@@]21C [Compound 71, 17α-Acetoxy-11β-[4(N-Piperidino)phenyl]-19-norpregna-4,9-diene-3,20-dione]		low binding affinity			20%	
COCC(=O)C1(OC(C)=O)CCC2C3CCC4=CC(=O)CCC4=C3C(c3ccc(N4CCCCC4)cc3)CC21C (stereo not drawn) [Compound 123a, 17α-Acetoxy-1113-[4-(N-piperidino)phenyl]-21-methoxy-19-norpregna-4,9-diene-3,20-dione]					11%	
CC(=O)O[C@]1(C(=O)CF)CCC2C3CCC4=CC(=O)CCC4=C3C(c3ccc(N(C)C)cc3)C[C@@]21C (stereo partly drawn) [Compound 13, 17α-acetoxy-21-fluoro-11β-[4-(N,N-dimethylamino)phenyl]-19-norpregna-4,9-diene-3,20-dione]	109%		did not show significant differences			103
COCC(=O)[C@@]1(OC)CC[C@H]2[C@@H]3CCC4=CC(=O)CCC4=C3[C@@H](c3ccc(N(C)C)cc3)C[C@@]21C [Compound 113a, 17α,21-Dimethoxy-11β-[4-(N,N-dimethylamino)phenyl]-19-norpregna-4,9-diene-3,20-dione]		reduced binding affinity			62%	
CN(C)c1ccc(C2CC3(C)C(CCC34OCC4=O)C3CCC4=CC(=O)CCC4=C23)cc1 (stereo not drawn) [Compound 12, 17-Spirooxetano-3′-oxo-11β-[4-(N,N-dimethylamino)phenyl]-19-norpregna-4,9-dien-3-one]	32%					26
CC(=O)OCC(=O)[C@@]1(OC(C)=O)CC[C@H]2[C@@H]3CCC4=CC(=O)CCC4=C3[C@@H](c3ccc(C(C)=O)cc3)C[C@@]21C [Compound 106b, 17α,21-Diacetoxy-11β-(4-acetylphenyl)19-norpregna-4,9-diene-3,20-dione]					14%	
CC(=O)O[C@]1(C(=O)CCl)CCC2C3CCC4=CC(=O)CCC4=C3C(c3ccc(N(C)C)cc3)C[C@@]21C (stereo partly shown) [Compound 14A]	90%		did not show significant differences			75
CC(=O)OCC(=O)[C@@]1(OC(C)=O)CCC2C3CCC4=CC(=O)CCC4=C3C(c3ccc(N(C)C)cc3)C[C@@]21C (stereo partly drawn) [Compound 15, 17α,21-diacetoxy-11β-[4-(N,N-dimethylamino)phenyl]-19-norpregna-4,9-diene-3,20-dione]	51%	substantial reduction in glucocorticoid binding affinity; also recorded: low binding affinity				300
